Experimental data published in patent EP0942911B1, “BENZOPYRANOPYRROLE AND BENZOPYRANOPYRIDINE ALPHA-1 ADRENERGIC COMPOUNDS” (Abbott Laboratories, priority 1996, dated 1998).
Counter-ions that a name gives are not always drawn.

Experiments:
Assay in all cases: biochemical
α-1b adrenoreceptor = target: T1, α-1b adrenoreceptor (Mesocricetus auratus, UniProt P18841); type: binding, hamster; settings: [3H]-prazosin radioligand; cloned receptor in LTK cell membranes; read-out: Radioligand Binding (Ki, nM) 1b (Hamster)
T1 sequence (P18841 1-515): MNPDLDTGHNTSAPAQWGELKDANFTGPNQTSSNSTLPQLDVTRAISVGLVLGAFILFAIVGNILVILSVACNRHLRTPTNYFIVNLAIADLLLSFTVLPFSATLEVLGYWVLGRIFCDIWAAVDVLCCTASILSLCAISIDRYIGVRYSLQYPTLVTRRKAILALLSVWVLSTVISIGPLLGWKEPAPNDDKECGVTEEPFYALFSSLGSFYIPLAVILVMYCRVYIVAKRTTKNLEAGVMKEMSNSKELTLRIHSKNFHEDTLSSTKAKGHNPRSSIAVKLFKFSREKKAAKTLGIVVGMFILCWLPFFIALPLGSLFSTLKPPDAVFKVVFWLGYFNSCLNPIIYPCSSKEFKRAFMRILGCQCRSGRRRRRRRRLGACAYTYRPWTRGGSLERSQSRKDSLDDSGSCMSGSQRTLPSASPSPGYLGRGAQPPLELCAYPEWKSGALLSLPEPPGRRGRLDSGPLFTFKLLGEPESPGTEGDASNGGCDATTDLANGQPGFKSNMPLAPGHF
Outline: (§1)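 LTK mouse fibroblasts stably transfected with α-1a, α-1b or α-1d cDNA → roller-bottle culture 5 days at 37 °C → membranes in 50 mM Tris-HCl, stored at -70 °C → radioligand binding → scintillation counting.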

[1] = target: T2, α-1A adrenoreceptor (rat submaxillary gland) (Rattus norvegicus, UniProt P43140); type: binding; settings: [3H]-prazosin radioligand; rat submaxillary gland membranes; read-out: Radioligand Binding (Ki, nM) 1A (Rat)
T2 sequence (P43140 1-466): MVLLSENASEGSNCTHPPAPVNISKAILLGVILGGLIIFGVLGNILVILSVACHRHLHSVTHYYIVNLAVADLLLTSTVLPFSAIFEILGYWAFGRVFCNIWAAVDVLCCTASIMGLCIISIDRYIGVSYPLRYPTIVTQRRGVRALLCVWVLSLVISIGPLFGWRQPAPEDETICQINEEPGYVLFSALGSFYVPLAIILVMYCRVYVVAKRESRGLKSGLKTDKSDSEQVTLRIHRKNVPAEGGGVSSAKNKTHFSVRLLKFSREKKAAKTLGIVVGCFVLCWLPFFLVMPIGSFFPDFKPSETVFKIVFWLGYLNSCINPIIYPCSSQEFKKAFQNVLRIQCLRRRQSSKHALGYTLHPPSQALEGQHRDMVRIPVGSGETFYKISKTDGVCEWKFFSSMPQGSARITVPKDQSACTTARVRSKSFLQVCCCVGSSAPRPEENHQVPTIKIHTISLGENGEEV
Outline: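 Radioligand binding to α-1A sites in membrane homogenates of rat submaxillary gland, run after Greengrass and Bremner. Bound radioactivity counted by liquid scintillation.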

α-1d adrenoreceptor = target: T3, α-1d adrenoreceptor (Rattus norvegicus, UniProt P23944); type: binding; settings: [3H]-prazosin radioligand; cloned receptor in LTK cell membranes; read-out: Radioligand Binding (Ki, nM) 1d (Rat)
T3 sequence (P23944 1-561): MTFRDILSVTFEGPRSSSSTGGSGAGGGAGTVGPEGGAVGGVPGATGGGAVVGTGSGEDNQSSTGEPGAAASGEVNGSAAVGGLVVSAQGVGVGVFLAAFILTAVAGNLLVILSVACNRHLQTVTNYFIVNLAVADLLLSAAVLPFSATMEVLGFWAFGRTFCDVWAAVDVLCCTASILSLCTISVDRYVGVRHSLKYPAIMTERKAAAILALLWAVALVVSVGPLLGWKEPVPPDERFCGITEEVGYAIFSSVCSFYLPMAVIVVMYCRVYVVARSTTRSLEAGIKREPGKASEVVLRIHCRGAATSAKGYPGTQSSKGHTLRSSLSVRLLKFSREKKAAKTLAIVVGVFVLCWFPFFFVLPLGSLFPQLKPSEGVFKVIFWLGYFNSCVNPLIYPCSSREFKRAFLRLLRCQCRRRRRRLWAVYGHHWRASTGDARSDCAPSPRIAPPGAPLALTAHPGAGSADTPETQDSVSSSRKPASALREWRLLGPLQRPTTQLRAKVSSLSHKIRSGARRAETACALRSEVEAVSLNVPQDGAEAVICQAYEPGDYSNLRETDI
Outline: as §1

α-1a adrenoreceptor = target: T4, α-1a adrenoreceptor (Bos taurus, UniProt P18130); type: binding, bovine; settings: [3H]-prazosin radioligand; cloned receptor in LTK cell membranes; read-out: Radioligand Binding (Ki, nM) 1a (Bovine)
T4 sequence (P18130 1-466): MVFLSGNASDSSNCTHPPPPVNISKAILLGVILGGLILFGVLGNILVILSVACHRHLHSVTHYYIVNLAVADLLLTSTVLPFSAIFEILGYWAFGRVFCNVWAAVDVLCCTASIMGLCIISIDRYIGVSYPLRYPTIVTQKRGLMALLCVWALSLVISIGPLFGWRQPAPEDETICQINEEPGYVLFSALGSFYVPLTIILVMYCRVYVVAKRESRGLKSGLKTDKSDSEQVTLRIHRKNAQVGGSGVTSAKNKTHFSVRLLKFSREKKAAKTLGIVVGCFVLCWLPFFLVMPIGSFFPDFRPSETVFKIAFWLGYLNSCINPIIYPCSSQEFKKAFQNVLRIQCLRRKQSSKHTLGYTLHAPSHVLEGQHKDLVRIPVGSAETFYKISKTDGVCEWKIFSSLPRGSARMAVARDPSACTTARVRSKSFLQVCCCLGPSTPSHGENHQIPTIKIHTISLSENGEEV
Outline: as §1

Structure (SMILES)	Ki (α-1b adrenoreceptor)	Ki [1]	Ki (α-1d adrenoreceptor)	Ki (α-1a adrenoreceptor)
COc1cccc2c1[C@@H]1CN(CCCCn3c(=O)[nH]c4c(sc5c(Cl)ccnc54)c3=O)C[C@@H]1CO2 [Example 20, 3-[4-((3aR,9bR-cis-9-Methoxy-1,2,3,3a,4,9b-hexahydro-[1]-benzopyrano[3,4-c]pyrrol-2-yl)butyl]-6-chloro-pyrido[2',3':4,5]thieno[3,2-d]pyrimidine-2,4(1H,3H)-dione hydrochloride]	3.5 nM	0.208 nM	0.439 nM	0.038 nM
COc1cccc2c1[C@@H]1CN(CCCCn3c(=O)[nH]c4c(sc5ccccc54)c3=O)C[C@H]1CO2 [Example 21, 3-[4-((3aS,9bR)-trans-9-Methoxy-1,2,3,3a,4,9b-hexahydro-[1]-benzopyrano[3,4-c]pyrrol-2-yl)butyl]-[1]benzthieno[3,2-d]pyrimidine-2,4(1H,3H)-dione hydrochloride]	0.326 nM	0.03 nM	0.03 nM	0.018 nM
COc1cccc2c1[C@@H]1CN(CCCCn3c(=O)[nH]c4c(sc5ccccc54)c3=O)C[C@@H]1CO2 [Example 22, 3-[4-((3aR,9bR)-cis-9-Methoxy-1,2,3,3a,4,9b-hexahydro-[1]-benzopyrano[3,4-c]pyrrol-2-yl)butyl]-[1]benzthieno[3,2-d]pyrimidine-2,4(1H,3H)-dione hydrochloride]	1.16 nM	0.196 nM	0.138 nM	0.031 nM
COc1cccc2c1[C@@H]1CN(CCCCCn3c(=O)[nH]c4c(sc5ccccc54)c3=O)C[C@H]1CO2 [Example 23, 3-[5-((3aS,9bR)-trans-9-Methoxy-1,2,3,3a,4,9b-hexahydro-[1]-benzopyrano[3,4-c]pyrrol-2-yl)pentyl]-[1]benzthieno[3,2-d]pyrimidine-2,4(1H,3H)-dione hydrochloride]	0.973 nM	0.743 nM	0.639 nM	0.046 nM
COc1cccc2c1[C@@H]1CN(CCCCCn3c(=O)[nH]c4c(sc5ccccc54)c3=O)C[C@@H]1CO2 [Example 24, 3-[5-((3aR,9bR)-cis-9-Methoxy-1,2,3,3a,4,9b-hexahydro-[1]-benzopyrano[3,4-c]pyrrol-2-yl)pentyl]-[1]benzthieno[3,2-d]pyrimidine-2,4(1H,3H)-dione hydrochloride]	5.56 nM	5.37 nM	4.51 nM	0.616 nM
COc1cnc2c(c1)sc1c(=O)n(CCCCN3C[C@H]4COc5cccc(OC)c5[C@@H]4C3)c(=O)[nH]c12 [Example 27, 3-[4-((3aS,9bR)-trans-9-Methoxy-1,2,3,3a,4,9b-hexahydro-[1]-benzopyrano[3,4-c]pyrrol-2-yl)butyl]-7-methoxy-pyrido[2',3':4,5]thieno[3,2-d]pyrimidine-2,4(1H,3H)-dione hydrochloride]	0.974 nM	0.121 nM	0.094 nM	0.044 nM
COc1cccc2c1[C@@H]1CN(CCCCn3c(=O)[nH]c4c(sc5ccc(-c6ccccc6)nc54)c3=O)C[C@H]1CO2 [Example 52, 3-[4-((3aS,9bR)-trans-9-Methoxy-1,2,3,3a,4,9b-hexahydro-[1]-benzopyrano[3,4-c]pyrrol-2-yl)butyl]-8-phenyl-pyrido[2',3':4,5]thieno[3,2-d]pyrimidine-2,4(1H,3H)-dione dihydrochloride]	13.6 nM	3.98 nM	0.597 nM	1.08 nM
COc1cnc2sc3c(=O)n(CCCCN4C[C@H]5COc6cccc(OC)c6[C@@H]5C4)c(=O)[nH]c3c2c1 [Example 55, 3-[4-((3aS,9bR)-trans-9-Methoxy-1,2,3,3a,4,9b-hexahydro-[1]-benzopyrano[3,4-c]pyrrol-2-yl)butyl]-8-methoxy-pyrido[3',2':4,5]thieno[3,2-d]pyrimidine-2,4(1H,3H)-dione hydrochloride]	1.46 nM	0.111 nM	0.02 nM	0.103 nM
COc1cccc2c1[C@@H]1CN(CCCCn3c(=O)[nH]c4c(sc5ccc(-c6cccnc6)nc54)c3=O)C[C@@H]1CO2 [Example 56, 3-[4-((3aR,9bR)-cis-9-Methoxy-1,2,3,3a,4,9b-hexahydro-[1]-benzopyrano[3,4-c]pyrrol-2-yl)butyl]-8-(3-pyridyl)-pyrido[2',3';4,5]thieno[3,2-d]pyrimidine-2,4(1H,3H)-dione dihydrochloride]	10.2 nM	0.614 nM	1.31 nM	0.078 nM
COc1cccc2c1[C@@H]1CN(CCCCn3c(=O)[nH]c4c(sc5ncc(-c6ccsc6)nc54)c3=O)C[C@@H]1CO2 [Example 57, 3-[4-((3aR,9bR)-cis-9-Methoxy-1,2,3,3a,4,9b-hexahydro-[1]-benzopyrano[3,4-c]pyrrol-2-yl)butyl]-8-(3-thienyl)-pyrazino[2',3':4,5]thieno[3,2-d]pyrimidine-2,4(1H,3H)-dione dihydrochloride]	19.3 nM	0.682 nM	0.507 nM	0.078 nM
COc1cccc2c1[C@@H]1CN(CCCCn3c(=O)[nH]c4c(sc5ccc(-c6cccnc6)nc54)c3=O)C[C@H]1CO2 [Example 58, 3-[4-((3aS,9bR)-trans-9-Methoxy-1,2,3,3a,4,9b-hexahydro-[1]-benzopyrano[3,4-c]pyrrol-2-yl)butyl]-8-(3-pyridyl)-pyrido[2',3':4,5]thieno[3,2-d]pyrimidine-2,4(1H,3H)-dione trihydrochloride]	2.08 nM	0.273 nM	0.039 nM	0.188 nM
COc1cccc2c1[C@@H]1CN(CCCCn3c(=O)[nH]c4c(sc5ncc(-c6ccsc6)nc54)c3=O)C[C@H]1CO2 [Example 59, 3-[4-((3aS,9bR)-trans-9-Methoxy-1,2,3,3a,4,9b-hexahydro-[1]-benzopyrano[3,4-c]pyrrol-2-yl)butyl]-8-(3-thienyl)-pyrazino[2',3':4,5]thieno[3,2-d]pyrimidine-2,4(1H,3H)-dione dihydrochloride]	6.74 nM	0.166 nM	0.257 nM	0.049 nM
COc1cccc2c1[C@@H]1CN(CCCCn3c(=O)[nH]c4c(sc5ncc(-c6cccnc6)nc54)c3=O)C[C@H]1CO2 [Example 60, 3-[4-((3aS,9bR)-trans-9-Methoxy-1,2,3,3a,4,9b-hexahydro-[1]-benzopyrano[3,4-c]pyrrol-2-yl)butyl]-8-(3-pyridyl)-pyrazino[2',3':4,5]thieno[3,2-d]pyrimidine-2,4(1H,3H)-dione dihydrochloride]	14.2 nM	0.187 nM	1.82 nM	0.078 nM
